Measured values taken from patent US8629157B2, “Pyrrolidine compounds which modulate the CB2 receptor” (Boehringer Ingelheim International GmbH, priority 2009, dated 2014).
Like-named read-outs stand apart in the source and are kept apart here.

Target: human CB2R (Homo sapiens, UniProt P34972)
Assay: CB2R mediated modulation of cAMP synthesis
Format: cell-based
In short: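 CHO cells expressing human CB2R were treated 30 min at 37° C. with compounds in buffer containing 1 mM IBMX, 0.25% BSA and 10 uM forskolin; cAMP in lysates was measured by DiscoverX-XS kit.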

[1] = CHO cells expressing human CB2R, inhibition of forskolin-stimulated cAMP synthesis, mean, read-out: CB2 CAMP @ EC50 nM (mean)

Chain of human CB2R (P34972 whole entry): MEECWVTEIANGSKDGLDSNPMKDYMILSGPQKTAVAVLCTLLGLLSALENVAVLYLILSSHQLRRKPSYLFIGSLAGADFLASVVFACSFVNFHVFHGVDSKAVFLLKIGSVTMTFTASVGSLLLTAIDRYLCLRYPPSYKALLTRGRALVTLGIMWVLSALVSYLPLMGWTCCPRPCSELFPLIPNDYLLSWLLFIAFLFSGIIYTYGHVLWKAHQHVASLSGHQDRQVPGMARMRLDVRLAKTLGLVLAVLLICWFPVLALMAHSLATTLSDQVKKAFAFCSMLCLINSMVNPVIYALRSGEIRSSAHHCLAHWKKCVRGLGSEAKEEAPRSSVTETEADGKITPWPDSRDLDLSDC

Row | SMILES | EC50 [1] | EC50
1 | O=C(Nc1nc2c(s1)CCCC2)[C@@H]1CCCN1c1ccc(Cl)cc1 [(S)-1-(4-Chloro-phenyl)-pyrrolidine-2-carboxylic acid (4,5,6,7-tetrahydro-benzothiazol-2-yl)-amide] | 12.7 nM | –
2 | O=C(Nc1nc(C2CCCCC2)cs1)[C@@H]1CCCN1c1ccc(Cl)cc1 [(S)-1-(4-Chloro-phenyl)-pyrrolidine-2-carboxylic acid (4-cyclohexyl-thiazol-2-yl)-amide] | – | 35.5 nM
3 | O=C(Nc1nc(C2CC2)cs1)[C@@H]1CCCN1c1ccc(Cl)cc1 [(S)-1-(4-Chloro-phenyl)-pyrrolidine-2-carboxylic acid (4-cyclopropyl-thiazol-2-yl)-amide] | – | 36.1 nM
4 | CCc1ccnc(NC(=O)[C@@H]2CCCN2c2ccc(Cl)cc2)c1 [(S)-1-(4-Chloro-phenyl)-pyrrolidine-2-carboxylic acid (4-ethyl-pyridin-2-yl)-amide] | – | 1.2 nM
5 | O=C(Nc1ccc(F)c(C(F)(F)F)c1)[C@@H]1CCCN1c1ccc(Cl)cc1 [(S)-1-(4-Chloro-phenyl)-pyrrolidine-2-carboxylic acid (4-fluoro-3-trifluoromethyl-phenyl)-amide] | – | 19.1 nM
6 | Cc1nonc1CNC(=O)[C@@H]1CCCN1c1ccc(Cl)cc1 [(S)-1-(4-Chloro-phenyl)-pyrrolidine-2-carboxylic acid (4-methyl-furazan-3-ylmethyl)-amide] | 498 nM | –
7 | CC(C)(C)c1nc(NC(=O)[C@@H]2CCCN2c2ccc(Cl)cc2)sc1C#N [(S)-1-(4-Chloro-phenyl)-pyrrolidine-2-carboxylic acid (4-tert-butyl-5-cyano-thiazol-2-yl)-amide] | – | 31.7 nM
8 | CC(C)(C)C1CCC(NC(=O)[C@@H]2CCCN2c2ccc(Cl)cc2)CC1 (stereo partly drawn) [(S)-1-(4-Chloro-phenyl)-pyrrolidine-2-carboxylic acid (4-tert-butyl-cyclohexyl)-amide] | – | 7.42 nM
9 | CC(C)(C)c1csc(NC(=O)[C@@H]2CCCN2c2ccc(Cl)cc2)n1 [(S)-1-(4-Chloro-phenyl)-pyrrolidine-2-carboxylic acid (4-tert-butyl-thiazol-2-yl)-amide] | – | 30.1 nM
10 | O=C(Nc1nc(C(F)(F)F)co1)[C@@H]1CCCN1c1ccc(Cl)cc1 [(S)-1-(4-Chloro-phenyl)-pyrrolidine-2-carboxylic acid (4-trifluoromethyl-oxazol-2-yl)-amide] | – | 5.79 nM
11 | O=C(Nc1cc(C(F)(F)F)ccn1)[C@@H]1CCCN1c1ccc(Cl)cc1 [(S)-1-(4-Chloro-phenyl)-pyrrolidine-2-carboxylic acid (4-trifluoromethyl-pyridin-2-yl)-amide] | – | 23.4 nM
12 | O=C(Nc1nc(C(F)(F)F)cs1)[C@@H]1CCCN1c1ccc(Cl)cc1 [(S)-1-(4-Chloro-phenyl)-pyrrolidine-2-carboxylic acid (4-trifluoromethyl-thiazol-2-yl)-amide] | – | 89.2 nM
13 | CC1(C)CC(=O)C=C(NC(=O)[C@@H]2CCCN2c2ccc(Cl)cc2)C1 [(S)-1-(4-Chloro-phenyl)-pyrrolidine-2-carboxylic acid (5,5-dimethyl-3-oxo-cyclohex-1-enyl)-amide] | – | 17.9 nM
14 | O=C(Nc1nc2cc(Cl)ccc2[nH]1)[C@@H]1CCCN1c1ccc(Cl)cc1 [(S)-1-(4-Chloro-phenyl)-pyrrolidine-2-carboxylic acid (5-chloro-1H-benzimidazol-2-yl)-amide] | – | 2.16 nM
15 | Cc1ccc(NC(=O)[C@@H]2CCCN2c2ccc(Cl)cc2)nc1 [(S)-1-(4-Chloro-phenyl)-pyrrolidine-2-carboxylic acid (5-methyl-pyridin-2-yl)-amide] | – | 120 nM
16 | O=C(Nc1nnc(-c2ccccc2)s1)[C@@H]1CCCN1c1ccc(Cl)cc1 [(S)-1-(4-Chloro-phenyl)-pyrrolidine-2-carboxylic acid (5-phenyl-1,3,4-thiadiazol-2-yl)-amide] | – | 11.2 nM

Row | SMILES | EC50 [1] | EC50
17 | CC(C)(C)c1nnc(NC(=O)[C@@H]2CCCN2c2ccc(Cl)cc2)s1 [(S)-1-(4-Chloro-phenyl)-pyrrolidine-2-carboxylic acid (5-tert-butyl-1,3,4-thiadiazol-2-yl)-amide] | – | 0.098 nM
18 | O=C(Nc1ccc(C(F)(F)F)cn1)[C@@H]1CCCN1c1ccc(Cl)cc1 [(S)-1-(4-Chloro-phenyl)-pyrrolidine-2-carboxylic acid (5-trifluoromethyl-pyridin-2-yl)-amide] | – | 35.1 nM
19 | O=C(Nc1cccc(C(F)(F)F)n1)[C@@H]1CCCN1c1ccc(Cl)cc1 [(S)-1-(4-Chloro-phenyl)-pyrrolidine-2-carboxylic acid (6-trifluoromethyl-pyridin-2-yl)-amide] | – | 48.8 nM
20 | O=C(NC1CCOCC1)[C@@H]1CCCN1c1ccc(Cl)cc1 [(S)-1-(4-Chloro-phenyl)-pyrrolidine-2-carboxylic acid (tetrahydro-pyran-4-yl)-amide] | – | 254 nM
21 | O=C(NCC1CCOCC1)[C@@H]1CCCN1c1ccc(Cl)cc1 [(S)-1-(4-Chloro-phenyl)-pyrrolidine-2-carboxylic acid (tetrahydro-pyran-4-ylmethyl)-amide] | – | 415 nM
22 | CC(Cc1ccc(Cl)cc1)NC(=O)[C@@H]1CCCN1c1ccc(Cl)cc1 (stereo partly drawn) [(S)-1-(4-Chloro-phenyl)-pyrrolidine-2-carboxylic acid [2-(4-chloro-phenyl)-1-methyl-ethyl]-amide] | – | 270 nM
23 | O=C(NCCC1CCOCC1)[C@@H]1CCCN1c1ccc(Cl)cc1 [(S)-1-(4-Chloro-phenyl)-pyrrolidine-2-carboxylic acid [2-(tetrahydro-pyran-4-yl)-ethyl]-amide] | – | 105 nM
24 | CC(C)(CO)c1cc(NC(=O)[C@@H]2CCCN2c2ccc(Cl)cc2)on1 [(S)-1-(4-Chloro-phenyl)-pyrrolidine-2-carboxylic acid [3-(2-hydroxy-1,1-dimethyl-ethyl)-isoxazol-5-yl]-amide] | – | 0.378 nM
25 | O=C(Nc1nc(-c2ccc(Cl)cc2)cs1)[C@@H]1CCCN1c1ccc(Cl)cc1 [(S)-1-(4-Chloro-phenyl)-pyrrolidine-2-carboxylic acid [4-(4-chloro-phenyl)-thiazol-2-yl]-amide] | – | 84.9 nM
26 | O=C(Nc1nc(-c2ccc(F)cc2)cs1)[C@@H]1CCCN1c1ccc(Cl)cc1 [(S)-1-(4-Chloro-phenyl)-pyrrolidine-2-carboxylic acid [4-(4-fluoro-phenyl)-thiazol-2-yl]-amide] | – | 115 nM
27 | CC(C)(C)c1cc(NC(=O)[C@@H]2CCC(=O)N2c2ccc(C#N)c(F)c2)on1 [(S)-1-(4-Cyano-3-fluoro-phenyl)-5-oxo-pyrrolidine-2-carboxylic acid (3-tert-butyl-isoxazol-5-yl)-amide] | 286 nM | –
28 | CC(C)(C)c1cc(NC(=O)[C@@H]2CCC(=O)N2c2ccc(C#N)c(F)c2)no1 [(S)-1-(4-Cyano-3-fluoro-phenyl)-5-oxo-pyrrolidine-2-carboxylic acid (5-tert-butyl-isoxazol-3-yl)-amide] | – | 78.5 nM
29 | CC(C)(C)c1cc(NC(=O)[C@@H]2CCCN2Cc2ccc(OC(F)F)cc2)on1 [(S)-1-(4-Difluoromethoxy-benzyl)-pyrrolidine-2-carboxylic acid (3-tert-butyl-isoxazol-5-yl)-amide] | – | 8.04 nM
30 | CC(C)(C)c1cc(NC(=O)[C@@H]2CCC(=O)N2c2ccc(C(F)F)cc2)on1 [(S)-1-(4-Difluoromethyl-phenyl)-5-oxo-pyrrolidine-2-carboxylic acid (3-tert-butyl-isoxazol-5-yl)-amide] | – | 15.2 nM
31 | CCc1ccc(N2C(=O)CC[C@H]2C(=O)Nc2cc(C(C)(C)C)no2)cc1 [(S)-1-(4-Ethyl-phenyl)-5-oxo-pyrrolidine-2-carboxylic acid (3-tert-butyl-isoxazol-5-yl)-amide] | – | 173 nM
